Reference: patent US20240090547A1, “SWEETENER COMPOSITIONS COMPRISING MOGROSIDES AND USES THEREOF” (Firmenich Incorporated, priority 2021, published 2024)

Assays:
Assay type in all cases: in vivo, human
panel of volunteers [1] = assay: Sensory testing for lemon-lime carbonated soft drink; set-up: key to Sweetness / Delayed Sweetness / Bitterness / Lingering Sweetness / Overall Off-Taste / Licorice Aftertaste / Bitterness Aftertaste: 10-point scale; scores normalized to average Reb M scores; settings: 600 ppm (mogroside V 600 mg [sic]), average normalized score, 10-point scale; for Bitterness Aftertaste / Licorice Aftertaste / Lingering Sweetness / Overall Off-Taste: aftertaste; for Bitterness / Delayed Sweetness / Global Flavor Intensity / Sweetness: in-mouth
Procedure: (§1) A panel of volunteers evaluated siamenoside I for in-mouth attributes (sweetness, delayed sweetness, sourness, bitterness, global flavor intensity, thickness/body, and astringence) and aftertaste (AT) attribtues (lingering sweetness, overall off-taste intensity, licorice off-tast, bitterness off-taste, and mouth coating) on a 10-point scale. Two replicate sessions were conducted, with a 20 minute break between sessions. There was a 90 second delay between samples within a session. Panelists evaluated all samples in a first session and evaluated the samples again a second time in a second session. Control samples of Rebaudioside M (Reb M) were evaluated during all sessions as a control. Mogroside V was also evaluated and sensory data for mogroside V is provided.
(§2) Data analysis was performed using 2-way analysis of variance (ANOVA) with interaction using Tukey's HSD test. The data was normalized for each attribute according to average scores for Reb M.
A panel of volunteers evaluated the siamenoside I-containing lemon-lime carbonated soft drink for in-mouth attributes and aftertaste attributes according to the methods described in Example 1 above.
The average normalized in-mouth attributes for a sample of lemon-lime carbonated soft drink having […] was evaluated below.
The average normalized aftertaste attributes for a sample of lemon-lime carbonated soft drink having siamenoside I was evaluated below.

panel of volunteers [2] = assay: Sensory testing for sparkling orange beverage; settings: sparkling orange beverage, 250 ppm (mogroside V 250 mg [sic]), average normalized score, 10-point scale; for Licorice Aftertaste / Lingering Sweetness / Mouth Coating / Overall Off-Taste: aftertaste; for Delayed Sweetness / Sweetness: in-mouth
Procedure: as §1, §2
A panel of volunteers evaluated a sparkling orange beverage containing siamenodie I for in-mouth attributes and aftertaste attributes according to the methods described in Example 1 above.
The average normalized in-mouth attributes for a sample of sparkling orange beverage containing siamenoside I was evaluated and the results are provided below.
The average normalized aftertaste attributes for a sample of sparkling orange beverage containing siamenoside I was evaluated and the results are provided below.

panel of volunteers [3] = assay: Sensory testing for apple drink (panel, in-mouth and aftertaste attributes); set-up: key to Sweetness / Delayed Sweetness / Bitterness / Lingering Sweetness / Overall Off-Taste / Licorice Aftertaste / Bitterness Aftertaste / Mouth Coating: 10-point scale; normalized per attribute to average Reb M scores; settings: 10-point scale; for Bitterness Aftertaste / Licorice Aftertaste / Lingering Sweetness / Overall Off-Taste / Mouth Coating: aftertaste; for Bitterness / Delayed Sweetness / Global Flavor Intensity / Sweetness / Thickness/Body: in-mouth, average normalized score
Procedure: as §1, §2
The average normalized in-mouth attributes for each sample of apple drink containing siamenoside I was evaluated below.
The average sweetness for each sample of apple drink containing siamenoside I was evaluated below.

panel of volunteers [4] = assay: Sensory testing for vanilla milk; settings: average normalized score, 10-point scale; for Licorice Aftertaste / Lingering Sweetness / Mouth Coating / Overall Off-Taste: aftertaste; for Astringence / Delayed Sweetness / Fattiness / Sourness / Sweetness / Bitterness / Global Flavor Intensity: in-mouth
Procedure: as §1, §2
A panel of volunteers evaluated vanilla milk for in-mouth attributes and aftertaste attributes according to the methods described in Example 1 above.
The average normalized in-mouth attributes for each sample of vanilla milk was evaluated and the results are provided below.
The average normalized aftertaste attributes for each sample of vanilla milk containing siamenoside I was evaluated and the results are provided below.

[5] = 250 ppm (mogroside V 250 mg [sic])
[6] = 500 ppm (mogroside V 500 mg [sic])
[7] = 200 ppm (mogroside V 200 mg [sic])
[8] = 400 ppm (mogroside V 400 mg [sic])

Structure (SMILES): C=C1C[C@@]23CC[C@H]4[C@@](C)(CCC[C@@]4(C)C(=O)O[C@@H]4O[C@H](CO)[C@@H](O)[C@H](O[C@@H]5O[C@H](CO)[C@@H](O)[C@H](O)[C@H]5O)[C@H]4O[C@@H]4O[C@H](CO)[C@@H](O)[C@H](O)[C@H]4O)[C@@H]2CC[C@]1(O[C@@H]1O[C@H](CO)[C@@H](O)[C@H](O[C@@H]2O[C@H](CO)[C@@H](O)[C@H](O)[C@H]2O)[C@H]1O[C@@H]1O[C@H](CO)[C@@H](O)[C@H](O)[C@H]1O)C3 [Reb M, Rebaudioside M]
- Bitterness Aftertaste (panel of volunteers [1]): 1.4
- Licorice Aftertaste (panel of volunteers [1]): 2.5
- Lingering Sweetness (panel of volunteers [1]): 4.3
- Overall Off-Taste (panel of volunteers [1]): 3.6
- Bitterness (panel of volunteers [1]): 1.9
- Delayed Sweetness (panel of volunteers [1]): 3.3
- Global Flavor Intensity (panel of volunteers [1]): 4.8
- Sweetness (panel of volunteers [1]): 6.0
- Licorice Aftertaste (panel of volunteers [2]): 2.2
- Lingering Sweetness (panel of volunteers [2]): 3.9
- Mouth Coating (panel of volunteers [2]): 2.5
- Overall Off-Taste (panel of volunteers [2]): 3.3
- Delayed Sweetness (panel of volunteers [2]): 3.3
- Sweetness (panel of volunteers [2]): 5.8
- Bitterness Aftertaste (panel of volunteers [3]; [5]): 1.1
- Licorice Aftertaste (panel of volunteers [3]; [5]): 2.0
- Lingering Sweetness (panel of volunteers [3]; [5]): 3.7
- Overall Off-Taste (panel of volunteers [3]; [5]): 2.9
- Bitterness (panel of volunteers [3]; [5]): 1.4
- Delayed Sweetness (panel of volunteers [3]; [5]): 2.5
- Global Flavor Intensity (panel of volunteers [3]; [5]): 4.0
- Sweetness (panel of volunteers [3]; [5]): 4.9
- Thickness/Body (panel of volunteers [3]; [5]): 1.5
- Licorice Aftertaste (panel of volunteers [3]; [6]): 2.2
- Lingering Sweetness (panel of volunteers [3]; [6]): 4.4
- Mouth Coating (panel of volunteers [3]; [6]): 2.2
- Overall Off-Taste (panel of volunteers [3]; [6]): 3.1
- Bitterness (panel of volunteers [3]; [6]): 1.3
- Delayed Sweetness (panel of volunteers [3]; [6]): 3.0
- Global Flavor Intensity (panel of volunteers [3]; [6]): 4.7
- Sweetness (panel of volunteers [3]; [6]): 6.1
- Thickness/Body (panel of volunteers [3]; [6]): 1.9
- Licorice Aftertaste (panel of volunteers [4]; [7]): 0.8
- Lingering Sweetness (panel of volunteers [4]; [7]): 2.6
- Mouth Coating (panel of volunteers [4]; [7]): 3.1
- Overall Off-Taste (panel of volunteers [4]; [7]): 1.8
- Astringence (panel of volunteers [4]; [7]): 0.6
- Delayed Sweetness (panel of volunteers [4]; [7]): 1.7
- Fattiness (panel of volunteers [4]; [7]): 3.3
- Sourness (panel of volunteers [4]; [7]): 0.7
- Sweetness (panel of volunteers [4]; [7]): 4.9
- Licorice Aftertaste (panel of volunteers [4]; [8]): 1.3
- Lingering Sweetness (panel of volunteers [4]; [8]): 3.8
- Mouth Coating (panel of volunteers [4]; [8]): 0.7
- Overall Off-Taste (panel of volunteers [4]; [8]): 2.1
- Astringence (panel of volunteers [4]; [8]): 0.6
- Bitterness (panel of volunteers [4]; [8]): 0.8
- Delayed Sweetness (panel of volunteers [4]; [8]): 2.2
- Fattiness (panel of volunteers [4]; [8]): 3.8
- Global Flavor Intensity (panel of volunteers [4]; [8]): 4.6
- Sourness (panel of volunteers [4]; [8]): 0.7
- Sweetness (panel of volunteers [4]; [8]): 6.6

Structure (SMILES): C[C@H](CC[C@@H](O[C@@H]1O[C@H](CO[C@@H]2O[C@H](CO)[C@@H](O)[C@H](O)[C@H]2O)[C@@H](O)[C@H](O)[C@H]1O[C@@H]1O[C@H](CO)[C@@H](O)[C@H](O)[C@H]1O)C(C)(C)O)[C@H]1CC[C@@]2(C)[C@@H]3CC=C4[C@@H](CC[C@H](O[C@@H]5O[C@H](CO[C@@H]6O[C@H](CO)[C@@H](O)[C@H](O)[C@H]6O)[C@@H](O)[C@H](O)[C@H]5O)C4(C)C)[C@]3(C)[C@H](O)C[C@]12C [mogroside V]
- Bitterness Aftertaste (panel of volunteers [1]): 1.6
- Licorice Aftertaste (panel of volunteers [1]): 2.3
- Lingering Sweetness (panel of volunteers [1]): 3.6
- Overall Off-Taste (panel of volunteers [1]): 3.7
- Bitterness (panel of volunteers [1]): 2.0
- Delayed Sweetness (panel of volunteers [1]): 3.4
- Global Flavor Intensity (panel of volunteers [1]): 3.9
- Sweetness (panel of volunteers [1]): 5.0
- Licorice Aftertaste (panel of volunteers [2]): 2.2
- Lingering Sweetness (panel of volunteers [2]): 3.6
- Mouth Coating (panel of volunteers [2]): 2.8
- Overall Off-Taste (panel of volunteers [2]): 2.9
- Delayed Sweetness (panel of volunteers [2]): 4.2
- Sweetness (panel of volunteers [2]): 5.1
- Bitterness Aftertaste (panel of volunteers [3]; [5]): 1.3
- Licorice Aftertaste (panel of volunteers [3]; [5]): 2.3
- Lingering Sweetness (panel of volunteers [3]; [5]): 2.5
- Overall Off-Taste (panel of volunteers [3]; [5]): 3.4
- Bitterness (panel of volunteers [3]; [5]): 1.6
- Delayed Sweetness (panel of volunteers [3]; [5]): 2.5
- Global Flavor Intensity (panel of volunteers [3]; [5]): 3.0
- Sweetness (panel of volunteers [3]; [5]): 3.4
- Thickness/Body (panel of volunteers [3]; [5]): 1.3
- Licorice Aftertaste (panel of volunteers [3]; [6]): 2.0
- Lingering Sweetness (panel of volunteers [3]; [6]): 3.8
- Mouth Coating (panel of volunteers [3]; [6]): 2.1
- Overall Off-Taste (panel of volunteers [3]; [6]): 2.9
- Bitterness (panel of volunteers [3]; [6]): 1.3
- Delayed Sweetness (panel of volunteers [3]; [6]): 3.1
- Global Flavor Intensity (panel of volunteers [3]; [6]): 4.1
- Sweetness (panel of volunteers [3]; [6]): 5.2
- Thickness/Body (panel of volunteers [3]; [6]): 1.6
- Licorice Aftertaste (panel of volunteers [4]; [7]): 0.8
- Lingering Sweetness (panel of volunteers [4]; [7]): 2.5
- Mouth Coating (panel of volunteers [4]; [7]): 2.9
- Overall Off-Taste (panel of volunteers [4]; [7]): 1.6
- Astringence (panel of volunteers [4]; [7]): 0.5
- Delayed Sweetness (panel of volunteers [4]; [7]): 1.9
- Fattiness (panel of volunteers [4]; [7]): 3.2
- Sourness (panel of volunteers [4]; [7]): 1.0
- Sweetness (panel of volunteers [4]; [7]): 5.0
- Licorice Aftertaste (panel of volunteers [4]; [8]): 1.1
- Lingering Sweetness (panel of volunteers [4]; [8]): 3.5
- Mouth Coating (panel of volunteers [4]; [8]): 0.9
- Overall Off-Taste (panel of volunteers [4]; [8]): 2.2
- Astringence (panel of volunteers [4]; [8]): 0.3
- Bitterness (panel of volunteers [4]; [8]): 1.2
- Delayed Sweetness (panel of volunteers [4]; [8]): 2.0
- Fattiness (panel of volunteers [4]; [8]): 3.5
- Global Flavor Intensity (panel of volunteers [4]; [8]): 4.2
- Sourness (panel of volunteers [4]; [8]): 0.9
- Sweetness (panel of volunteers [4]; [8]): 6.3
